# From patent publication US7541375B2, “Azole derivatives and pharmaceutical compositions containing them” (Laboratoires Serono SA, priority 2001, dated 2009)
# Values joined by “and” are separate entries in the source; they are usually repeats but may differ in a detail not shown here. Identical values can stand only once.
# Experiments:
# MEK-1/ERK-2 = MEK-1/ERK-2 (Homo sapiens, UniProt Q02750, S218E/S222E); assay: MEK-1/ERK-2 enzyme cascade assay (33P incorporation into MBP biotin); type: biochemical; settings: 3 μM ATP, phosphorylation of myelin basic protein
# MEK-1/ERK-2, sequence (Q02750 whole entry S218E/S222E): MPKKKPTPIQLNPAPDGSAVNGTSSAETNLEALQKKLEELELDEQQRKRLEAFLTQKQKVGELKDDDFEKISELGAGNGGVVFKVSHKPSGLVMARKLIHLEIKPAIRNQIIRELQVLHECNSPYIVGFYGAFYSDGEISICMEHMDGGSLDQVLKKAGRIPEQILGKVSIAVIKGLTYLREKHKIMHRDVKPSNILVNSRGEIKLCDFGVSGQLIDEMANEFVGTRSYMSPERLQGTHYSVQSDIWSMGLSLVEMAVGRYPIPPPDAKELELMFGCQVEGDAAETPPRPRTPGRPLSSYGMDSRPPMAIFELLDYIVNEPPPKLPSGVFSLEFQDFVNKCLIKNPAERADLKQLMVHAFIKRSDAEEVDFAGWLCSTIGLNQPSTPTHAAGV
# Protocol: MEK-1/ERK-2 Enzyme Cascade Assay
# A 50 μl mixture containing 40 nM of constitutively active MEK1EE, 160 nM of ERK2 and 10 μM MBP biotin were incubated in the presence or absence of the below compound of the invention in 1% DMSO and 1× kinase buffer containing 3 μM ATP, 50 mM Tris-HCl pH 8.0, 10 mM MgCl2, 1 mM DTT, 100 μM Na3VO4 and […] ^33P-γATP in Wallac 96 well white plates for 2 hours at room temperature. At the end of the incubation the enzyme reaction was quenched by adding 200 μl Phosphate buffered saline (PBS) solution containing 1.25 mg/ml Streptavidin SPA beads, 50 mM EDTA and 0.1% Triton 100 and incubated further for 12-14 hours at room temperature. ^33P-γATP incorporation into MBP biotin was measured using the top counts. The assay read-out is phosphorylation of myelin basic protein, which is a representative substrate of ERK-2-phos. This assay is a further confirmatory screen of the assay of Example 38 above.
# [1] = molecular target: MEK-1 (constitutively active MEK1EE) (Homo sapiens, UniProt Q02750, S218E/S222E); assay: MEK-1 enzyme assay (HTRF, phosphorylation of ERK2K52A); type: biochemical; settings: 3 μM ATP, 2 hours room temperature
# MEK-1 (constitutively active MEK1EE), sequence (Q02750 whole entry S218E/S222E, species assumed): as the sequence (Q02750 whole entry S218E/S222E) above
# Protocol: A 50 μl mixture containing 15 nM constitutively active MEK1EE and 300 nM of ERK2K52A were incubated either in the presence or absence of the compounds of the invention in 1% DMSO and 1× kinase buffer containing 3 μM ATP, […], […], 1 mM DTT and 100 μM Na3VO4 in Wallac 96 well black plates for 2 hours at room temperature. At the end of the incubation the enzyme reaction was quenched by adding 50 μl of assay buffer containing […] Tris-HCl, 50 mM EDTA, 0.1% BSA and a mixture of 1.25 μg/ml europium labeled anti-phosphotyrosine mAb and 5 μg/ml allophycocyanin labeled (APC) anti-GST antibody. Plates were agitated on a plate shaker for 30 minutes and phosphorylation of the ERK2K52A substrate was measured by homogenous time resolved fluorescence (HTRF) at 340 nm excitation and […] emission filters on the VICTOR V fluorescence plate reader. The results are of phosphorylation of ERK-2, with inhibition occurring at the MEK-1 level. Results were as follows for the specified compounds: […]
# [2] = test system: murine colon carcinoma C26 cells; assay: Growth of tumors induced in CDF1 mice with murine colon carcinoma C26 cells; type: in vivo
# Protocol: The aim of this study was to evaluate the effects of Example No. 30 in FIG. 1: […] Control group (empty circles) was treated with NP3S (5% N-methylpyrrolidone/30% PEG400/25% PEG200/20% Propylene Glycol in Saline) per os bid. […] Drugs treatment started 8 days following C26 cell injection and then continued for 13 days. […] Tumor volume and body weight were monitored every three days from day 8 until day 20.
# TNF release (TNF-α) = assay: Inhibition of TNF-alpha production in LPS-stimulated mice; type: in vivo; settings: −15 mn before LPS
# Protocol: Injection of lipopolysaccharide (LPS) induces a rapid release of soluble tumor necrosis factor (TNF-α) into the periphery. This model is used to identify potential blockers of TNF release in vivo
# The potency of compounds of the invention as inhibitors of serum TNFα elevation in mice treated with LPS is determined as follows:
# • For per oral (p.o.) administration, compounds of the invention are formulated in 0.5% carboxymethyl cellulose/0.25% Tween 80 in saline and given orally via gavage […] to LPS administration. Dexamethasone is used as the reference compound and given at 0.1 mg/kg per orally. • C3/hen female mice (Iffa-Credo, France) are injected intraperitoneally with 0.3 mg/kg LPS (Escherichia coli, Serotype 0111:B4, Sigma Chemical Co., St. Louis, Mo.) and sacrificed 90 min later by CO2 asphyxiation. Blood is immediately taken from caudal vena cava and plasma prepared and frozen at −80° C. Each group of treatment contained 6 animals.
# [3] = test system: Chronic Myelogenous Leukemia (K562 cell line; ATCC CCL-243)
# Protocol: (§1) Breast cancer MCF-7 cells or ovarian cancer OVCAR-3 cells were plated in 96 well Packard white plates at 4×10^3 cells/well and cultured overnight at 37° C. in 5% CO2. The below specified test compounds were serially diluted in 100% DMSO and subsequently added to cells to reach a final concentration of 0.5% DMSO. MCF-7 and OVCAR-3 (ATCC HTB-161) plates were incubated for an additional 4 to 5 days respectively at 37° C. and 5% CO2 and cell proliferation was quantitated using the ATP lite cell proliferation kit (Packard).
# (§2) (R) 4-iodo-benzoic acid 1-imidazol-1-yl methyl-2-phenoxy-ethyl ester (Example No. 1) was tested for anti-proliferation activity against additional tumor cell types as specified below by procedures described in Example 39 above. American Type Culture Collection (ATCC) deposit numbers are indicated below for many of the tested cell types. Results express, as follows, the concentration of compound of the invention (μM) required to inhibit the proliferation of the tumor cells by 50 percent relative untreated controls (i.e. IC50 (μM)).
# [4] = test system: Lung Carcinoma (PC-6 cell line)
# Protocol: as §1, §2
# [5] = test system: Malignant Melanoma (SK-MEL-5 cell line; ATCC HTB-70)
# Protocol: as §1, §2
# [6] = test system: Colon Adeno Carcinoma (DLD-1 cell line; ATCC CCL-221)
# Protocol: as §1, §2
# [7] = test system: Kidney Carcinoma (A498 cell line; ATCC HTB-44)
# Protocol: as §1, §2
# [8] = test system: Pancreatic Epithelioid Carcinoma (PANC-1 cell line; ATCC CRL-1469)
# Protocol: as §1, §2
# [9] = test system: Prostate Adenocarcinoma (PC-3 cell line; ATCC CRL-1435)
# Protocol: as §1, §2
# [10] = test system: Colon Adeno Carcinoma (Grade II) (HT-29 cell line; ATCC HTB-38); settings: HT-29 cell line (Example 42)
# Protocol: as §1, §2
# [11] = test system: Breast Ductal Carcinoma (T47D cell line; ATCC HTB-133)
# Protocol: as §1, §2
# [12] = test system: Kidney Adeno Carcinoma (ACHN cell line; ATCC CRL-1611)
# Protocol: as §1, §2
# [13] = test system: Lung Carcinoma (A549 cell line; ATCC CCL-185)
# Protocol: as §1, §2
# [14] = test system: Neuroepithelioma (SK-N-MC cell line; ATCC HTB-10)
# Protocol: as §1, §2
# [15] = test system: Breast Adeno Carcinoma (MCF-7 cell line); settings: MCF-7 cell line (Example 42)
# Protocol: as §1, §2
# [16] = test system: Promyelocytic Leukemia (HL-60 cell line; ATCC CRL-240)
# Protocol: as §1, §2
# [17] = test system: Pancreatic Carcinoma (MIA PaCa-2 cell line; ATCC CRL-1420)
# Protocol: as §1, §2
# [18] = test system: Breast cancer MCF-7 cells; assay: MCF-7 tumor cell proliferation assay; type: cell-based; settings: MCF-7, ATP lite cell proliferation kit
# [19] = test system: ovarian cancer OVCAR-3 cells; assay: OVCAR-3 tumor cell proliferation assay; type: cell-based; settings: OVCAR-3, ATP lite cell proliferation kit
# [20] = test system: Colon 205 cell (ATCC CCL-222); assay: Colon 205 cell anti-proliferation assay; type: cell-based; settings: Colon 205 cells, 2×10^3 cells/well
# Protocol: (§3) Compounds of the invention were tested for anti-proliferation activity against colon tumors (Colo205, HT-29, C26 and SW660 cell lines) by procedures described in Example 40 above. 2×10^3 cells/well used.
# HT-29 cell (ATCC HTB-38) = assay: HT-29 cell anti-proliferation assay; type: cell-based; settings: HT-29 cells, 2×10^3 cells/well
# Protocol: as §3
# Colon C26 cell = Colon C26 cell anti-proliferation assay; type: cell-based, murine; settings: Colon C26 cells, 2×10^3 cells/well
# Protocol: as §3
# [21] = test system: primary rat granulosa cell; settings: compound at 10 nM to 100 nM in the presence of picomolar FSH (2 to 5 picomolar)
# Protocol: Cells were plated at 5000, 8,000 and 20,000 cells/well/200 μl of GAB medium on poly-D-lysine coated 96-well tissue culture plates. Plates were incubated at 37° C. in a 5% CO/95% air incubator for 3 days. […] The compound of the invention and picomolar FSH were then added to the cultures. Cells were incubated @ 37° C. in 5% CO2. Three days later, cell supernatants were collected and diluted 1:100 in GAB medium for measurement of estradiol by RIA. The RIA was performed according to manufacturer directions except that an estradiol standard was prepared in absolute ethanol at 100 ng/ml and then further diluted in GAB medium, instead of kit buffer.
# [22] = test system: SW 660 cell (ATCC CCL-227); assay: SW 660 cell anti-proliferation assay; type: cell-based; settings: SW 660 cells, 2×10^3 cells/well
# Protocol: as §3
compound,measurement,setting,value
"COc1ccc(C(=O)OC(COc2ccccc2)Cn2ccnc2)cc1 (racemic) [4-methoxy-benzoic acid 1-imidazol-1-yl methyl-2-phenoxy-ethyl ester (racemic), 4-methoxy-benzoic acid 1-imidazol-1-yl methyl-2-phenoxy-ethyl ester]",IC50,MEK-1/ERK-2,1.78 ± 0.254 µM
same,IC50,[1],1.63 ± 0.241 µM
"O=P1(N(CCCl)CCCl)NCCCO1 (stereo not shown) [Cyclophosphamide, reference compound]",inhibition of tumor growth at day 20,"[2]; 50 mg/kg s.c. every third day, 5 treatments, day 20",73%
same,tumor growth (tumor volume),"[2]; 50 mg/kg s.c. every third day, day 11 until day 20 (p<0.001)",significantly slowed down tumor growth
same,tumor-associated loss in body weight,"[2]; 50 mg/kg s.c. every third day, from day 11",markedly prevented
"C[C@@H]1C[C@H]2[C@@H]3CCC4=CC(=O)C=C[C@]4(C)[C@@]3(F)[C@@H](O)C[C@]2(C)[C@@]1(O)C(=O)CO [Dexamethasone, reference compound]",TNF Release vs LPS inj. % of inhibition Mean ± SEM,TNF release (TNF-α); 0.1 mg/kg p.o.,86 ± 6% and 88 ± 1%
"O=C(OC(COc1ccccc1)Cn1ccnc1)c1ccc(I)cc1 (stereo not shown) [Example 1, 4-Iodo-benzoic acid 1-imidazol-1-yl methyl-2-phenoxy-ethyl ester]",IC50,[3],33 µM
same,IC50,[4],43 µM
same,IC50,[5],11 µM
same,IC50,[6],36 µM
same,IC50,[7],54 µM
same,IC50,[8],> 100 µM
same,IC50,[9],24 µM
same,IC50,[10],4 µM
same,IC50,[11],11 µM
same,IC50,[12],> 100 µM
same,IC50,[13],25 µM
same,IC50,[14],6.7 µM
same,IC50,[15],33 µM
same,IC50,[16],3.6 µM
same,IC50,[17],3.1 µM
same,IC50,[18],15 ± 7.1 µM
same,IC50,MEK-1/ERK-2,0.036 ± 0.008 µM
same,IC50,[19],25 µM
same,IC50,[20],1.4 µM
same,IC50,[1],0.039 ± 0.012 µM
same,IC50,HT-29 cell (ATCC HTB-38),3.5 µM
same,IC50,Colon C26 cell,2.33 µM
same,estradiol production,[21],induces estradiol production
same,IC50,[22],2.1 µM
"COc1ccc(C(=O)O[C@@H](COc2ccccc2)Cn2ccnc2)cc1 [Example 6, (R)-4-Methoxy-benzoic acid 1-imidazol-1-yl methyl-2-phenoxy-ethyl ester]",IC50,"[18]; Homo sapiens, MCF7",32.5 ± 3.5 µM
same,IC50,MEK-1/ERK-2,0.92 ± 0.174 µM
same,IC50,[19]; Homo sapiens,40 µM
same,IC50,[20],22.5 µM
same,IC50,[1],0.86 ± 0.093 µM
same,IC50,HT-29 cell (ATCC HTB-38); Homo sapiens,27.5 µM
same,IC50,[22],20 µM
"O=C(OC(COc1ccc([N+](=O)[O-])cc1)Cn1ccnc1)c1ccc(I)cc1 (stereo not shown) [Example 18, 4-Iodo-benzoic acid 2-imidazol-1-yl-1-(4-nitro-phenoxymethyl)-ethyl ester]",IC50,[1],0.015 µM
same,IC50,Colon C26 cell; Mus musculus,0.57 µM
"O=C(O[C@@H](COc1cccnc1)Cn1ccnc1)c1ccc(I)cc1 [Example 22, 4-Iodo-benzoic acid 1-imidazol-3-yl methyl-2-(pyridin-3-yloxy)-ethyl ester]",IC50,[1],0.011 µM
same,IC50,Colon C26 cell; Mus musculus,1.08 µM
"O=C(N[C@@H](COc1ccccc1)Cn1ccnc1)c1ccc(I)cc1 [Example 27, N-(1-imidazol-1-ylmethyl-2-phenoxy-ethyl)-4-iodo-benzamide]",TNF Release vs LPS inj. % of inhibition Mean ± SEM,TNF release (TNF-α); 12.5 mg/kg p.o.,32 ± 5%
same,TNF Release vs LPS inj. % of inhibition Mean ± SEM,TNF release (TNF-α); 50 mg/kg p.o.,39 ± 3%
same,IC50,MEK-1/ERK-2,0.085 µM
same,IC50,[19]; Homo sapiens,50 µM
same,IC50,[20],2.1 µM
same,IC50,[1],0.092 µM
same,IC50,HT-29 cell (ATCC HTB-38); Homo sapiens,2.8 µM
same,IC50,[22],2.2 µM
"O=C(NC(COc1ccc(F)cc1)Cn1ccnc1)c1ccc(I)cc1 (stereo not shown) [Example 30, N-[2-(4-Fluoro-phenoxy)-1-imidazol-1-ylmethyl-ethyl]-4-iodo-benzamide]",TNF Release vs LPS inj. % of inhibition Mean ± SEM,TNF release (TNF-α); 12.5 mg/kg p.o.,77 ± 2%
same,TNF Release vs LPS inj. % of inhibition Mean ± SEM,TNF release (TNF-α); 50 mg/kg p.o.,85 ± 3%
same,tumor-induced body weight loss,[2]; 50 mg/kg p.o. bid,significant prevention of tumor-induced body weight loss
same,tumor-induced body weight loss,[2]; 100 mg/kg p.o. bid,significant prevention of tumor-induced body weight loss
same,inhibition of tumor growth rate evaluated at day 20,"[2]; 100 mg/kg p.o. bid, day 20, vs NP3S control",37%
same,tumor growth vs NP3S control group,"[2]; 100 mg/kg p.o. bid, significant from day 11 to day 20",reduced tumor growth
same,IC50,[1],0.021 µM
"O=C(NC(COc1ccc(F)cc1)Cn1ccnc1Cl)c1ccc(I)cc1 (stereo not shown) [Example 34, N-[1-(2-Chloro-imidazol-1-ylmethyl)-2-(4-fluoro-phenoxy)-ethyl]-4-iodo-benzamide]",IC50,Colon C26 cell; Mus musculus,1.25 µM
"N#Cc1ccc(OCC(Cn2ccnc2Cl)NC(=O)c2ccc(I)cc2)cc1 (stereo not shown) [Example 35, N-[1-(2-Chloro-imidazol-1-ylmethyl)-2-(4-cyano-phenoxy)-ethyl]-4-iodo-benzamide]",IC50,Colon C26 cell; Mus musculus,0.3 µM
